Like-named read-outs stand apart in the source and are kept apart here. Where a SMILES comes first, the peptide text is derived from it. Where no end group is shown, it is not given here. The star is where a group is joined. Cbz = O=C(OCc1ccccc1)*; CH2F = FC*
Key:
[1] = test system: MEF-DKO murine fibroblasts; test: Apoptosis of wild-type MEF and Bax/Bak-deficient MEF-DKO fibroblasts (Annexin V-Cy3, flow cytometry); assay type: cell-based
Text: The graph (FIG. 6A) corresponds to a time course of cell death (quantified by flow cytometry by means of the Annexin V-Cy3 test) of MEF wild-type murine fibro-blasts compared with MEF-DKO murine fibroblasts.

HeLa cells [2] = test: Cytotoxicity in HeLa cells by LDH release; assay type: cell-based
Method: (A) HeLa cells were incubated for 6 h in the presence of 10 μM of poropeptide FITC-R8-Bax or of control peptide R8-Bax [Scr] (“scramble” version of the poropeptide), and then observed under an epifluorescence microscope. […] Scale 10 μm. […] HeLa cells were treated with increasing concentrations (5, 10, 25 and 50 μM) of peptide […] or […]. The cytotoxicity was determined by measuring the cellular release of lactate dehydrogenase (LDH) after 3, 6 or 24 h of incubation (n=4). […] The results are given in means and standard deviations. […] (25 μM). The cytotoxicity was determined by measuring the cellular release of lactate dehydrogenase (LDH) after 3, 6 or 24 h of incubation in the presence of 100 μM of zVAD.fmk or of buffer alone (‘DMSO’). The results are given as means and standard deviations. (D) Death rate (apoptosis/necrosis) of HeLa cells treated with poropeptide R8-Bax. The type of cell death was determined 24 h after transfection by observation of cell permeability to propidium iodide (necrosis) or of nuclear morphology after DNA staining with Hoechst 33342 (apoptosis). The green cells (expressing GFP) were visualized by epifluorescence microscopy. Approximately 300 cells were counted per experiment. The results are a mean of three independent experiments (the standard deviation is also represented).

HT-1080 cells = test: Cell death of HT-1080 cells expressing GFP fused to Bax membrane insertion fragments; assay type: cell-based, human; conditions: zVAD.fmk 100 μM
Method: The various constructs were transfected into human cells cultured in vitro (HT-1080 and SK-MEL-28), and then the subcellular localization and the cytotoxicity induced by the Bax membrane insertion fragments fused to GFP were determined.
FIG. 5A gives the death rate (apoptosis/necrosis) of HT-1080 cells expressing GFP alone or as a fusion with various membrane insertion fragments of the Bax death protein. The cells were treated (+) or not (−) with the general caspase inhibitor zVAD.fmk (100 μM). Cell death was quantified 24 h after transfection by counting the number of green cells (expressing GFP) under an epifluorescence microscope. The type of cell death (apoptosis and necrosis) was determined through the membrane permeability to propidium iodide (necrosis) and the nuclear morphology (condensed or fragmented nuclei) after staining with Hoechst 33342 (apoptosis). […] The results represent the mean values (with the standard deviations) of the three experiments.
In this experiment, the cell death was quantified using the Annexin-V-Cyanine 3 test by flow cytometry 24 h after transient transfection of the cells with the plasmids of interest.

isolated mitochondria = test: Cytochrome c release from isolated mitochondria (Western blotting of supernatant); assay type: biochemical; conditions: for incubation time at which cytochrome c is released: 10 μM
Method: The ex cellulo activity of poropeptide-Bax (106-134) was tested by determining its ability to promote the release of cytochrome c from the intermembrane space of isolated mitochondria. The results obtained are shown by FIG. 9 (A).
The peptide is incubated with the mitochondria for 5, 15, 30 or 60 min, and the mitochondrial release of cytochrome c into the supernatant (SN) is measured by Western blotting. The mitochondrial fractions (Mito) are calibrated using an antibody directed against the HSP70 or ATPase (subunit 6) mitochondrial proteins. With poropeptide-Bax (106-134), cytochrome c is released from the intermembrane space of the mitochondrion at 10 μM and in 5 min of incubation. No release is observed when an artificial antimicrobial peptide (KLAK) of sequence SEQ ID No. 2 KLAKLAKKLAKLAK is used.

Zebrafish eggs = test: Microinjection into zebrafish eggs (mortality, malformations); assay type: in vivo, Danio rerio
Text: Poropeptide-Bax was microinjected in vivo. The zebrafish (Danio rerio) model was used because (i) the apoptotic machinery is conserved between human cells and fish cells; (ii) the egg corresponds to an integrated cell system compared with isolated mitochondria; (iii) zebrafish eggs can be easily injected routinely.
(A) Zebrafish eggs were microinjected at the 1-2 cell(s) stage with increasing concentrations of poro-peptide-Bax, of Bax-BH3 peptide or with ultrapure water ('mock'). A concentration of 100 μM inside the microinjection capillary corresponds to approximately […] molecules of peptide per egg. […] The data shown are representative of 2 independent experiments giving the same results. (B) Embryonic morphology 24 h after microinjection (100 μM of peptide).

[3] = test system: mitochondria isolated from rat liver; test: Swelling and depolarization of mitochondria isolated from rat liver; assay type: biochemical
Method: Poropeptide-Bax (106-134) induces swelling of the mitochondria (DD50=1.68±0.39 μM) and a drop in their transmembrane potential (SD50=3.98±0.57 μM). These two parameters were measured using mitochondria isolated from rat liver, incubated in the presence of various concentrations of poropeptide-Bax (106-134) (NT=not treated).

[4] = test system: SK-MEL-28 human melanoma cells; test: Cell viability after microinjection into SK-MEL-28 melanoma cells; assay type: cell-based; conditions: SK-MEL-28, 12 h after microinjection; for cell death / viability after microinjection: versus control
Method: Poropeptide-Bax was then mixed with a solution of dextran-fluorescein (so as to allow its visualization by epifluorescence microscopy), and then microinjected into SK-MEL-28 human melanoma cells. Cell viability was then monitored and quantified 12 hours after microinjection.
(A) Micrographs showing SK-MEL-28 human melanoma cells injected with Dextran-FITC fluorescent tracer alone (‘mock’) or mixed with poropeptide-Bax. The cells were photographed 12 h after microinjection. […] Magnification×800. (B) Cell viability after microinjection of poropeptide-Bax or of Bax-BH3, KLAK or R8 peptide. The cells microinjected were visualized by means of the Dextran-FITC tracer. […] The data shown are representative of 2 independent experiments giving the same results.

HeLa cells [5] = test: Internalization of fluorescent peptides by HeLa cells (epifluorescence microscopy); assay type: cell-based
Method: The poropeptide of sequence SEQ ID No. 1, comprising a polyarginine N-terminal extension (R8) separated by a glycine residue, was used. A fluorescein isothiocyanate (FITC) group was added in the C-terminal position so as to allow its visualization by epifluorescence microscopy. The R8-Scr-FITC peptide is a “scramble” sequence of the sequence present in the R8-Bax [106-134]-FITC peptide, i.e. a control sequence in which the amino acids (their order in the sequence) have been mixed-up.
(A) HeLa cells were incubated for 6 h in the presence of 10 μM of poropeptide FITC-R8-Bax or of control peptide R8-Bax [Scr] (“scramble” version of the poropeptide), and then observed under an epifluorescence microscope. […] Scale 10 μm. […] The cytotoxicity was determined by measuring the cellular release of lactate dehydrogenase (LDH) after 3, 6 or 24 h of incubation (n=4). […] The cytotoxicity was determined by measuring the cellular release of lactate dehydrogenase (LDH) after 3, 6 or 24 h of incubation in the presence of 100 μM of zVAD.fmk or of buffer alone (‘DMSO’). […] The type of cell death was determined 24 h after transfection by observation of cell permeability to propidium iodide (necrosis) or of nuclear morphology after DNA staining with Hoechst 33342 (apoptosis). […] Approximately 300 cells were counted per experiment. […]

## CN[C@@H]1C[C@H]2O[C@@](C)([C@@H]1OC)n1c3ccccc3c3c4c(c5c6ccccc6n2c5c31)C(=O)NC4 [staurosporine]
[1]
  apoptosis induced in MEF-DKO cells: resistant

## COC(=O)C[C@H](NC(=O)[C@H](C)NC(=O)[C@@H](NC(=O)OCc1ccccc1)C(C)C)C(=O)CF [zVAD.fmk, reference compound] (Cbz-Val-Ala-Asp(OMe)-CH2F)
HeLa cells [2]; HeLa, zVAD.fmk 100 μM, poropeptide 25 μM, 3, 6 or 24 h
  effect of caspase inhibitor on cell death induced by poropeptide R8-Bax [106-134] (LDH release): reduces cell death
HT-1080 cells
  effect of caspase inhibitor on apoptosis caused by Bax membrane insertion fragments: blocking of the apoptosis

## H-NWGRVVALFYFASKLVLKALSTKVPELIR-OH [poropeptide-Bax (106-134)]
Isolated mitochondria
  minimum concentration for which cytochrome c release is observed: 10 µM
  incubation time at which cytochrome c is released: 5 min
Isolated mitochondria; listed as Poropeptide-Bax (106-134)
  incubation time at which cytochrome c is released: ≤ 5 min
Zebrafish eggs; 24 h after microinjection, 100 μM of peptide, compared with BH3 peptide group
  embryonic morphology: Severe malformations
Zebrafish eggs; increasing concentrations, microinjection at 1-2 cell stage
  cytotoxic effects after introduction into zebrafish eggs: dose-dependent cytotoxic effects
[3]; read-out: drop in transmembrane potential (SD50)
  EC50: 3980 ± 570 nM
[3]; read-out: swelling of the mitochondria (DD50)
  EC50: 1680 ± 390 nM
[4]
  cell morphology after microinjection: characteristic morphological manifestations of apoptosis
  cell death / viability after microinjection: substantial cell death

## KLAKLAKKLAKLAK [artificial antimicrobial peptide, reference compound]
Isolated mitochondria; incubation 5-60 min
  cytochrome c release from intermembrane space: No release
[4]
  cell death / viability after microinjection: no significant effect

## R8-Bax [106-134]: poropeptide of SEQ ID No. 1 with polyarginine N-terminal extension (R8) separated by a glycine residue, FITC group added (RRRRRRRRGNWGRVVALFYFASKLVLKALCTKVPELIR; also: FITC group added, position not given here; UniProt Q07812 106-134, looked up, fragment)
HeLa cells [5]; HeLa cells in culture in vitro
  time to internalization: in less than one hour
HeLa cells [5]; HeLa, 10 μM, 6 h
  cytoplasmic labeling of cells: strong cytoplasmic labeling
HeLa cells [2]; HeLa, 5, 10, 25 and 50 μM, 3, 6 or 24 h
  cytotoxicity by cellular release of lactate dehydrogenase (LDH): loss of cell viability which is dose-dependent and incubation time-dependent

## RRRRRRRR [R8, control peptide, a polyarginine intracellular transduction motif, reference compound]
[4]
  cell death / viability after microinjection: viability rates comparable to the control
